Experimental data taken from PMC10997755, “Discovery of a small-molecule inhibitor that traps Polθ on DNA and synergizes with PARP inhibitors” (Nature Communications, 2024).
Several values for one entry are separate records, joined by “and”; a condition that tells them apart may be missing. Identical values can stand only once. Entries after “also recorded” stand apart in the source; their conditions may differ.

Experiments:
DLD1 BRCA2 -/- cells = assay: Clonogenic assay; assay type: cell-based; details: for selective killing / synthetic lethality in BRCA2-null DLD1 cells: colony survival, versus BRCA2-WT; for Average number of colonies counted / Normalized (colonies): DLD1 BRCA2 NULL, 3 treatments were given; for average / percent suvival / replicate counts: DLD1-BRCA2 null cells
Procedure, shortened: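 Cells seeded at low density (300–1000 per well, by plate size and genotype), medium changed every 2 days, colonies grown 10–12 days. Fixed in water:ethanol:acetic acid, stained with 0.5% crystal violet, then counted; IC50 from ≥3 independent experiments, mean ± SEM.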

LogP = assay type: physicochemical; details: method not stated
Polθ-pol = biological target: T1, Polθ-pol (Homo sapiens, UniProt O75417); assay: Cy5 fluorescence Polθ-pol DNA synthesis (strand displacement) IC50 assay; assay type: biochemical; details: for IC50: Polθ-pol DNA synthesis, Cy5 fluorescence
T1 construct: purified recombinant human Polθ-pol (comprising amino acid residues 1792–2590); made in house
T1 sequence (O75417 1792-2590): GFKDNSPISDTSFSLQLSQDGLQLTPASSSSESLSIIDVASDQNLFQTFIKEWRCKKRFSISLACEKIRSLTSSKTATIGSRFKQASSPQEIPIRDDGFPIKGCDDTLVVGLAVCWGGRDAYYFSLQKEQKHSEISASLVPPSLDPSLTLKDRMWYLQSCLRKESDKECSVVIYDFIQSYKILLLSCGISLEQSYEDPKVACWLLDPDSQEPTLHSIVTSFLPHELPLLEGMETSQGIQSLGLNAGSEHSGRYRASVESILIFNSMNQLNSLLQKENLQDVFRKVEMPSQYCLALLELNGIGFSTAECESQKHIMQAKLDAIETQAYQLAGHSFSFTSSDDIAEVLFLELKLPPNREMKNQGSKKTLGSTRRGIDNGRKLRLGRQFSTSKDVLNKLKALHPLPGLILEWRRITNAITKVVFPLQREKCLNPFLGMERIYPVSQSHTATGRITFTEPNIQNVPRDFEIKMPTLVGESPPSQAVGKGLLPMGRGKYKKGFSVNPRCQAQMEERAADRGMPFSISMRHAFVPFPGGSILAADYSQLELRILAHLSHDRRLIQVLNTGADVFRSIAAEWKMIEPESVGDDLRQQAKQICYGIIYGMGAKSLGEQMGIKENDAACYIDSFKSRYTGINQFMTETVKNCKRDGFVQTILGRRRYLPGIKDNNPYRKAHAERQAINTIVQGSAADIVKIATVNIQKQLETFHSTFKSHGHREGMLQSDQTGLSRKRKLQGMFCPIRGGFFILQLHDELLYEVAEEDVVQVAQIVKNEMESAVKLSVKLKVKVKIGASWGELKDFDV
Procedure, shortened: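 Recombinant human Polθ-pol (aa 1792–2590, 5 nM) extends 60 nM Cy5/quencher primer-template with 50 uM dNTPs in 25 mM Tris pH 7.8, 10 mM MgCl2, 2.5% DMSO at 37 °C. After 18 min, stopped with 20 mM EDTA; Cy5 fluorescence read, 7-point series in triplicate, inhibition from the mean.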

DLD1 Parental cells = assay: Clonogenic assay; assay type: cell-based; details: DLD1 PARENTAL, 3 treatments were given
Method: Cells were plated on six or twelve or twenty-four well plates. In six well plate, 1000 cells/ well of BRCA2 -/-, BRCA1 -/-, PALB2 mut and 500 cells/ well of wildtype pair was plated; In twelve well plate, 600 cells/ well of BRCA2 -/-, BRCA1 -/-, PALB2 mut and 400 cells/ well of wildtype pair was plated; In twenty-four well plate, 500 cells/ well of BRCA2 -/-, BRCA1 -/-, PALB2 mut and 300 cells/ well of wildtype pair was plated. For MEFs, 300 cells per well in six-well plate were seeded. The medium was replaced every 2 days until the colonies were ready for staining in 10–12 days. For staining: Medium was removed from plates, and cells were rinsed with PBS. Fixation was carried out with—Water: Ethanol: Acetic acid (5:4:1) for 30 min followed by staining of colonies with 0.5% crystal violet in Water: Ethanol (3:2) for 2 h at room temperature. The plates were rinsed with water and left for drying overnight at room temperature. Colonies were then counted and IC50 was calculated using results from 3 or more independent experiments. Response curves are shown as mean colony formation +/- S.E.M.

[1] = 10 μM compound, 5 nM PolQ, 60 nM DNA, 18 min
[2] = RTX-152 1.25 micro M + OLA 3.125 nano M
[3] = RTX-152 1.25 micro M + OLA 6.25 nano M
[4] = RTX-152 1.25 micro M + OLA 12.50 nano M
[5] = RTX-152 1.25 micro M + OLA 25.00 nano M
[6] = RTX-152 1.25 micro M + OLA 50.00 nano M
[7] = RTX-152 1.25 micro M + OLA 100.00 nano M
[8] = RTX-152 1.25 micro M, OLA 0.00 nano M
[9] = RTX-152 2.5 micro M + OLA 3.125 nano M
[10] = RTX-152 2.5 micro M + OLA 6.25 nano M
[11] = RTX-152 2.5 micro M + OLA 12.50 nano M
[12] = RTX-152 2.5 micro M + OLA 25.00 nano M
[13] = RTX-152 2.5 micro M + OLA 50.00 nano M
[14] = RTX-152 2.5 micro M + OLA 100.00 nano M
[15] = RTX-152 2.5 micro M, OLA 0.00 nano M
[16] = RTX-152 5 micro M + OLA 3.125 nano M
[17] = RTX-152 5 micro M + OLA 6.25 nano M
[18] = RTX-152 5 micro M + OLA 12.50 nano M
[19] = RTX-152 5 micro M + OLA 25.00 nano M
[20] = RTX-152 5 micro M + OLA 50.00 nano M
[21] = RTX-152 5 micro M + OLA 100.00 nano M
[22] = RTX-152 5 micro M, OLA 0.00 nano M

## CN(C(=O)Oc1ccc(C(F)(F)F)cc1C(F)(F)F)c1ccc(F)cc1 [MC160385]
DLD1 BRCA2 -/- cells
  selective killing / synthetic lethality in BRCA2-null DLD1 cells: failed to show selective killing; also recorded: failure
LogP
  logP: ~5.3
Polθ-pol
  improved potency relative to hit MC28003: ~ 18 fold
  IC50: 9 nM
Polθ-pol; [1]
  raw signal, Positive Control, Average: 21.00
  raw signal, Positive Control, Trial 1-3: 20.96 and 21.46 and 20.58
Polθ-pol; MC160385 0.0014 μM, 5 nM PolQ
  Cy5 fluorescence, Average of Trial 1-3: 363.79
Polθ-pol; MC160385 0.0041 μM
  activity at 0.0041 µM: 77.8%
  inhibition at 0.0041 µM: 22.2%
Polθ-pol; MC160385 0.0041 μM, 5 nM PolQ
  Cy5 fluorescence, Average of Trial 1-3: 309.29
Polθ-pol; MC160385 0.0123 μM
  activity at 0.0123 µM: 38.7%
  inhibition at 0.0123 µM: 61.3%
Polθ-pol; MC160385 0.0123 μM, 5 nM PolQ
  Cy5 fluorescence, Average of Trial 1-3: 203.69
Polθ-pol; MC160385 0.0370 μM
  activity at 0.037 µM: 3.23%
  inhibition at 0.037 µM: 96.8%
Polθ-pol; MC160385 0.0370 μM, 5 nM PolQ
  Cy5 fluorescence, Average of Trial 1-3: 109.39
Polθ-pol; MC160385 0.1111 μM
  activity at 0.1111 µM: -2.07%
  inhibition at 0.1111 µM: 102%
Polθ-pol; MC160385 0.1111 μM, 5 nM PolQ
  Cy5 fluorescence, Average of Trial 1-3: 94.78
Polθ-pol; MC160385 0.3333 μM
  activity at 0.3333 µM: -2.9%
  inhibition at 0.3333 µM: 103%
Polθ-pol; MC160385 0.3333 μM, 5 nM PolQ
  Cy5 fluorescence, Average of Trial 1-3: 92.26
Polθ-pol; MC160385 1.0000 μM
  activity at 1 µM: -1.58%
  inhibition at 1 µM: 102%
Polθ-pol; MC160385 1.0000 μM, 5 nM PolQ
  Cy5 fluorescence, Average of Trial 1-3: 95.83
Polθ-pol; MC160385 2 μM, sheet Fig. 1 b
  Positive Control fluorescence, Average: 100.15
Polθ-pol; MC160385 10 μM, 5 nM PolQ, 18 min, sheet Fig. 1 g
  Positive Control fluorescence, Average: 33.58

## CN1CCN(c2cc(C(F)(F)F)cc(C(F)(F)F)c2OC(=O)N(C)c2ccc(F)cc2)C1=O [RTx-152]
DLD1 BRCA2 -/- cells; 2.5 micro M
  Average number of colonies counted: 47.3333
  Normalized (colonies): 65.5172
DLD1 BRCA2 -/- cells; 5 micro M
  Average number of colonies counted: 40.3333
  Normalized (colonies): 54.4828
DLD1 BRCA2 -/- cells; 10 micro M
  Average number of colonies counted: 22.6667
  Normalized (colonies): 31.0345
DLD1 BRCA2 -/- cells; 20 micro M
  Average number of colonies counted: 15
  Normalized (colonies): 20.6897
DLD1 BRCA2 -/- cells; Homo sapiens, DLD-1, read-out: IC50 clonogenic survival
  IC50: ~6000 nM
DLD1 BRCA2 -/- cells; [2]
  average: 78.6667
  percent suvival: 75.8842%
  replicate counts: 75 and 82 and 79
DLD1 BRCA2 -/- cells; [3]
  average: 66.6667
  percent suvival: 64.3087%
  replicate counts: 67 and 70 and 63
DLD1 BRCA2 -/- cells; [4]
  average: 40
  percent suvival: 38.5852%
  replicate counts: 36 and 44 and 40
DLD1 BRCA2 -/- cells; [5]
  average: 32.6667
  percent suvival: 31.5113%
  replicate counts: 35 and 31 and 32
DLD1 BRCA2 -/- cells; [6]
  average: 20
  percent suvival: 19.2926%
  replicate counts: 22 and 20 and 18
DLD1 BRCA2 -/- cells; [7]
  average: 11
  percent suvival: 10.6109%
  replicate counts: 8 and 11 and 14
DLD1 BRCA2 -/- cells; [8]
  average: 95
  percent suvival: 91.6399%
  replicate counts: 91 and 96 and 98
DLD1 BRCA2 -/- cells; [9]
  average: 71
  percent suvival: 68.4887%
  replicate counts: 68 and 70 and 75
DLD1 BRCA2 -/- cells; [10]
  average: 51
  percent suvival: 49.1961%
  replicate counts: 54 and 47 and 52
DLD1 BRCA2 -/- cells; [11]
  average: 37.6667
  percent suvival: 36.3344%
  replicate counts: 35 and 40 and 38
DLD1 BRCA2 -/- cells; [12]
  average: 21.6667
  percent suvival: 20.9003%
  replicate counts: 26 and 20 and 19
DLD1 BRCA2 -/- cells; [13]
  average: 13
  percent suvival: 12.5402%
  replicate counts: 10 and 16 and 13
DLD1 BRCA2 -/- cells; [14]
  average: 3.667
  percent suvival: 3.537%
  replicate counts: 7 and 2 (2×)
DLD1 BRCA2 -/- cells; [15]
  average: 80
  percent suvival: 77.1704%
  replicate counts: 82 and 80 and 78
DLD1 BRCA2 -/- cells; [16]
  average: 45.3333
  percent suvival: 43.7299%
  replicate counts: 49 and 42 and 45
DLD1 BRCA2 -/- cells; [17]
  average: 38
  percent suvival: 36.6559%
  replicate counts: 38 and 32 and 44
DLD1 BRCA2 -/- cells; [18]
  average: 19.6667
  percent suvival: 18.9711%
  replicate counts: 19 and 22 and 18
DLD1 BRCA2 -/- cells; [19]
  average: 7.333
  percent suvival: 7.074%
  replicate counts: 10 and 8 and 4
DLD1 BRCA2 -/- cells; [20]
  average: 1.667
  percent suvival: 1.608%
  replicate counts: 3 and 1 (2×)
DLD1 BRCA2 -/- cells; [21]
  average: 1
  percent suvival: 0.9646%
  replicate counts: 1 and 0 and 2
DLD1 BRCA2 -/- cells; [22]
  average: 73
  percent suvival: 70.418%
  replicate counts: 70 and 78 and 71
DLD1 BRCA2 -/- cells; clonogenic survival
  potency in BRCA2-null cells compared with RTx-161: moderately higher IC50
DLD1 BRCA2 -/- cells; clonogenic survival, Combenefit synergy
  combination with Olaparib: synergistic activity
DLD1 BRCA2 -/- cells
  selective killing / synthetic lethality in BRCA2-null DLD1 cells: selective killing; also recorded: induction of synthetic lethality
LogP
  logP: 4.2
Polθ-pol
  IC50: 6 nM and 6.2 nM and 4 to 6 nM
DLD1 Parental cells; 2.5 micro M
  Average number of colonies counted: 115
  Normalized (colonies): 97.4576
DLD1 Parental cells; 5 micro M
  Normalized (colonies): 97.4576
DLD1 Parental cells; 10 micro M
  Normalized (colonies): 95.7627
DLD1 Parental cells; 20 micro M
  Average number of colonies counted: 113
  Normalized (colonies): 95.7627
